Drawing on the supplement of paper PMC6045584, this text covers surviving fraction for seven test systems.

Compound in experiment [1]: C[C@]1(O)C[C@@H](c2nc(-c3ccc4ccc(-c5ccccc5)nc4c3)c3c(N)nccn32)C1 [OSI-906]
As to the kind of experiment: surviving fraction relative to DMSO-only wells; higher = less growth inhibition. Conditions: exposure time: 5 days. The procedure, abridged:
(§1)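 Five days of continuous inhibitor exposure, at 0.5, 1, 5, 10, 50, 100, 500 and 1000 nM, followed a 24-hour period after log-phase tumour cell lines were seeded at 250–500 cells per well in 384-well plates. Surviving fraction was derived from CellTiter-Glo luminescence relative to the median of DMSO-only wells. Plates were read after 10 minutes at room temperature, and lines screened three times were kept only if replicate Pearson r >0.7 and median Z' >0.3.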

Compound in experiment [2]: COCC[n+]1c2c(n(Cc3cnccn3)c1C)C(=O)c1ccccc1C2=O [YM155]
The experiment is described as above. Conditions: exposure time: 5 days. The procedure, abridged:
as §1

± gives the standard deviation of the averaged measurements.

Turning to CADOES1 SOFT TISSUE, the surviving fraction in experiment [1] (0.5 nM) was found to be 1.025 ± 0.0076; in experiment [1] (1 nM) it was 1.04 ± 0.024; in experiment [1] (5 nM) it was 0.957 ± 0.096; in experiment [1] (10 nM), 1.02 ± 0.036; in experiment [1] (50 nM) it was 0.847 ± 0.14; in experiment [1] (100 nM), 0.886 ± 0.1. Besides, the surviving fraction in experiment [1] (500 nM) stood at 0.871 ± 0.059; in experiment [1] (1000 nM) it was 0.962 ± 0.023; in experiment [2] (0.5 nM) it was 1.06 ± 0.12; in experiment [2] (1 nM) it was 0.907 ± 0.093; in experiment [2] (5 nM) it was 0.92 ± 0.096; in experiment [2] (10 nM) it was 0.911 ± 0.12. Also, the surviving fraction was 1.02 ± 0.056 in experiment [2] (50 nM), 0.934 ± 0.071 in experiment [2] (100 nM), 0.852 ± 0.054 in experiment [2] (500 nM) and 0.881 ± 0.064 in experiment [2] (1000 nM).

In the case of NOS1 BONE, the surviving fraction worked out at 0.916 ± 0.13 in experiment [1] (0.5 nM); 0.944 ± 0.062 in experiment [1] (1 nM); 1.16 ± 0.49 in experiment [1] (5 nM); 1 ± 0.15 in experiment [1] (10 nM); 1 ± 0.059 in experiment [1] (50 nM); 0.884 ± 0.057 in experiment [1] (100 nM). Besides, the surviving fraction in experiment [1] (500 nM) came out at 0.465 ± 0.028; in experiment [1] (1000 nM), 0.462 ± 0.029; in experiment [2] (0.5 nM), 1.4 ± 0.44; in experiment [2] (1 nM) it was 1.03 ± 0.084; in experiment [2] (5 nM) it was 0.316 ± 0.034; in experiment [2] (10 nM), 0.17 ± 0.025. For the same test system, the surviving fraction was 0.0643 ± 0.0076 in experiment [2] (50 nM), 0.048 ± 0.0062 in experiment [2] (100 nM), 0.0337 ± 0.0058 in experiment [2] (500 nM) and 0.0323 ± 0.0025 in experiment [2] (1000 nM).

With SIHA CERVIX, the surviving fraction in experiment [1] (0.5 nM) came out at 0.931 ± 0.067; in experiment [1] (1 nM), 0.888 ± 0.012; in experiment [1] (5 nM), 0.992 ± 0.11; in experiment [1] (10 nM) it was 0.886 ± 0.056; in experiment [1] (50 nM) it was 1.04 ± 0.057; in experiment [1] (100 nM), 1.01 ± 0.065. The surviving fraction in experiment [1] (500 nM) was 0.935 ± 0.046; in experiment [1] (1000 nM), 0.966 ± 0.026; in experiment [2] (0.5 nM) it was 0.917 ± 0.056; in experiment [2] (1 nM), 0.938 ± 0.069; in experiment [2] (5 nM), 0.977 ± 0.049; in experiment [2] (10 nM) it was 0.735 ± 0.011. The surviving fraction in experiment [2] (50 nM) worked out at 0.0433 ± 0.0055; in experiment [2] (100 nM) it was 0.022 ± 0.002; in experiment [2] (500 nM) it was 0.0197 ± 0.00058; in experiment [2] (1000 nM) it was 0.0243 ± 0.0015.

Consider MG63 BONE, for which the surviving fraction was found to be 0.9333 ± 0.0045 in experiment [1] (0.5 nM); 0.919 ± 0.025 in experiment [1] (1 nM); 0.989 ± 0.033 in experiment [1] (5 nM); 0.963 ± 0.012 in experiment [1] (10 nM); 0.971 ± 0.03 in experiment [1] (50 nM); 0.943 ± 0.018 in experiment [1] (100 nM). The surviving fraction in experiment [1] (500 nM) worked out at 0.896 ± 0.017; in experiment [1] (1000 nM), 0.9223 ± 0.0068; in experiment [2] (0.5 nM), 0.978 ± 0.036; in experiment [2] (1 nM) it was 1.04 ± 0.057; in experiment [2] (5 nM), 0.783 ± 0.048; in experiment [2] (10 nM) it was 0.659 ± 0.026. For the same test system, the surviving fraction in experiment [2] (50 nM) was 0.0477 ± 0.0021; in experiment [2] (100 nM), 0.0237 ± 0.0015; in experiment [2] (500 nM) it was 0.021 ± 0.001; in experiment [2] (1000 nM), 0.027 ± 0.0017.

In the case of RDES SOFT TISSUE, the surviving fraction worked out at 0.836 ± 0.081 in experiment [1] (0.5 nM); 0.818 ± 0.12 in experiment [1] (1 nM); 0.77 ± 0.14 in experiment [1] (5 nM); 0.733 ± 0.18 in experiment [1] (10 nM); 1.1 ± 0.019 in experiment [1] (50 nM); 1.05 ± 0.086 in experiment [1] (100 nM). Moreover, the surviving fraction in experiment [1] (500 nM) turned out to be 0.84 ± 0.015; in experiment [1] (1000 nM), 0.555 ± 0.032; in experiment [2] (0.5 nM) it was 1.44 ± 0.073; in experiment [2] (1 nM), 1.58 ± 0.18; in experiment [2] (5 nM), 1.65 ± 0.19; in experiment [2] (10 nM), 0.622 ± 0.052. In addition, the surviving fraction in experiment [2] (50 nM) turned out to be 0.0673 ± 0.0035; in experiment [2] (100 nM) it was 0.0373 ± 0.0015; in experiment [2] (500 nM) it was 0.036 ± 0.002; in experiment [2] (1000 nM), 0.0367 ± 0.0021.

In the case of HCC38 BREAST, the surviving fraction in experiment [1] (0.5 nM) worked out at 0.958 ± 0.13; in experiment [1] (1 nM), 0.883 ± 0.083; in experiment [1] (5 nM) it was 1.06 ± 0.09; in experiment [1] (10 nM), 0.902 ± 0.12; in experiment [1] (50 nM) it was 1.1 ± 0.19; in experiment [1] (100 nM) it was 1.12 ± 0.019. The surviving fraction in experiment [1] (500 nM) was 1.16 ± 0.14; in experiment [1] (1000 nM) it was 1.07 ± 0.24; in experiment [2] (0.5 nM), 1.28 ± 0.18; in experiment [2] (1 nM), 1.27 ± 0.12; in experiment [2] (5 nM) it was 0.346 ± 0.013; in experiment [2] (10 nM), 0.243 ± 0.015. Moreover, the surviving fraction stood at 0.043 ± 0.0056 in experiment [2] (50 nM), 0.031 ± 0.002 in experiment [2] (100 nM), 0.0247 ± 0.0021 in experiment [2] (500 nM) and 0.0297 ± 0.0011 in experiment [2] (1000 nM).

Consider MFM223 BREAST, for which the surviving fraction was 0.716 ± 0.049 in experiment [1] (0.5 nM); 0.791 ± 0.1 in experiment [1] (1 nM); 0.768 ± 0.092 in experiment [1] (5 nM); 0.811 ± 0.15 in experiment [1] (10 nM); 1.05 ± 0.095 in experiment [1] (50 nM); 1.02 ± 0.088 in experiment [1] (100 nM). Also, the surviving fraction in experiment [1] (500 nM) is 1.09 ± 0.013; in experiment [1] (1000 nM), 1.04 ± 0.017; in experiment [2] (0.5 nM), 0.966 ± 0.082; in experiment [2] (1 nM) it was 0.954 ± 0.19; in experiment [2] (5 nM), 0.259 ± 0.2; in experiment [2] (10 nM), 0.209 ± 0.15. For the same test system, the surviving fraction turned out to be 0.0798 ± 0.051 in experiment [2] (50 nM), 0.085 ± 0.085 in experiment [2] (100 nM), 0.116 ± 0.16 in experiment [2] (500 nM) and 0.138 ± 0.18 in experiment [2] (1000 nM).
